In US11512090B2, “Muscarinic acetylcholine M1 receptor antagonists” (PIPELINE THERAPEUTICS, INC., priority 2018, dated 2022) one finds IC50 data, which are given here for 21 molecules.

What all share (type): cell-based
In one experiment the target is M3 (Homo sapiens, UniProt P20309). Description: In vitro functional assay of muscarinic acetylcholine receptor activity, M3.
A further experiment concerns the target T1, M2 (Homo sapiens, UniProt P08172).
T1 sequence (P08172 1-466): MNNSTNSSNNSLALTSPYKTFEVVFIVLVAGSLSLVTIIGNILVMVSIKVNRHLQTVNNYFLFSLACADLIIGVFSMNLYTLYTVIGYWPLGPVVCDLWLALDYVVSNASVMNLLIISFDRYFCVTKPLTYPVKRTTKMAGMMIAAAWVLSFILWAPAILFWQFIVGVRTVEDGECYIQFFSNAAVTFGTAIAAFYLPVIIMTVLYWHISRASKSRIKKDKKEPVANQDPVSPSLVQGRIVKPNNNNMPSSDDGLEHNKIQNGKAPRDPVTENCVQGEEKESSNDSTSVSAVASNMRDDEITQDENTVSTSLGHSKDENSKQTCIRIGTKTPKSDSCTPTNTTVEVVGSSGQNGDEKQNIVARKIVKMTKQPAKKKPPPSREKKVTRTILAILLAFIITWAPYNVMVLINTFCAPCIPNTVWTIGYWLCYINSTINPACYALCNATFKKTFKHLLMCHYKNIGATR
Description: In vitro functional assay of muscarinic acetylcholine receptor activity, M2.

For the next experiment, the target named is T2, human M1 receptor (Homo sapiens, UniProt P11229).
T2 sequence (P11229 1-460): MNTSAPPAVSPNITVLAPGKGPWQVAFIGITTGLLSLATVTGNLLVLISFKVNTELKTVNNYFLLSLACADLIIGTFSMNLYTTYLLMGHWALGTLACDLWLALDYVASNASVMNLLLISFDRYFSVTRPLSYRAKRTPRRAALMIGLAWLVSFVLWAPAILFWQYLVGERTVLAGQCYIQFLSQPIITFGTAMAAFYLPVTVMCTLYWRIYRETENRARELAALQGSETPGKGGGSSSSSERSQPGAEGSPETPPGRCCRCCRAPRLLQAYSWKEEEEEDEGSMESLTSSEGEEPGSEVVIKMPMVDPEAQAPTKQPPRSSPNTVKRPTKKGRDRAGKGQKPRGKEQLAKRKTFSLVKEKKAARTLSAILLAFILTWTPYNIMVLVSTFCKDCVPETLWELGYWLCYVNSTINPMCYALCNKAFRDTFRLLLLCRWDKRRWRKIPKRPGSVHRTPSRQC
Kind of experiment: In vitro functional assay of muscarinic acetylcholine receptor activity (aequorin calcium flux, antagonist mode vs EC80 acetylcholine), M1. Put shortly: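 CHO-K1 cells stably co-expressing human M1 and aequorin were loaded with 5 uM coelenterazine h for 4 h at room temperature in the dark. IC50 came from the drop in luminescence.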

[1] abbreviates: antagonist IC50 at M3, read-out: M3 IC50.
The mark [2] stands for this setting: antagonist IC50 at M2, read-out: M2 IC50.
Where [3] appears, read: CHO-K1 cells stably expressing human M1 receptor with Aequorin, decrease in EC80 acetylcholine response, read-out: M1 IC50.

Read-outs that look alike come from different tables or passages of the source.

Chain of M3 (P20309 whole entry): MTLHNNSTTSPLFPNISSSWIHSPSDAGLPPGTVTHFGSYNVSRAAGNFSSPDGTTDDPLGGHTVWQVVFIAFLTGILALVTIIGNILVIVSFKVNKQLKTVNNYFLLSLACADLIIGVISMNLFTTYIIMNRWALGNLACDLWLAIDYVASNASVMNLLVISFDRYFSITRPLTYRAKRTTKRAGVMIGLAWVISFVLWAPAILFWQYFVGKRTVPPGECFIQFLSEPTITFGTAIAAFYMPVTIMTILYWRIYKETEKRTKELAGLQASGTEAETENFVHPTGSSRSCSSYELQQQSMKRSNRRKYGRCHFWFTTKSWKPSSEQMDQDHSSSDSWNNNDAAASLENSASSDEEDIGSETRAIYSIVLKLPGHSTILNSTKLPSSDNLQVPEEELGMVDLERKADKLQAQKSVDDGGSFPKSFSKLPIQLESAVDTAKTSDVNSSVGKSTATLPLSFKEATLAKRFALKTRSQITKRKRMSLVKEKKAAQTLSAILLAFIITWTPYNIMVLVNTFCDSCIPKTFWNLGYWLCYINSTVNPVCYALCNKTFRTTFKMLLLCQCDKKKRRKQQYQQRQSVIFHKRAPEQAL

For the molecule `O=C(CNCCc1cccn2nccc12)N1C[C@H]2CC[C@@H](C1)N2c1ccncc1F` [Example 118, 1-((1R,5S)-8-(3-fluoropyridin-4-yl)-3,8-diazabicyclo[3.2.1]octan-3-yl)-2-((2-(pyrazolo[1,5-a]pyridin-4-yl)ethyl)amino)ethan-1-one], the half-maximal inhibitory concentration (IC50) was over 10000 nM at M3 (setting [1]), over 10000 nM at M2 (setting [2]) and 1000 to 10000 nM on human M1 receptor (setting [3]).
On to `C[C@H]1CN(c2ccc(C#N)cn2)CCN1C(=O)CCS(=O)(=O)c1cccc2ncsc12` [Example 120, 6-[(3S)-4-[3-(1,3-benzothiazole-7-sulfonyl)propanoyl]-3-methylpiperazin-1-yl]pyridine-3-carbonitrile], for which the values for the half-maximal inhibitory concentration (IC50) at M3 (setting [1]), at M2 (setting [2]) and at human M1 receptor (setting [3]) were 1000 to 10000 nM, 1000 to 10000 nM and 100 to 1000 nM, respectively.
On to `O=C(CCS(=O)(=O)c1c(F)ccc2nccn12)N1CC2CCC(C1)N2c1ccc(F)cn1` [Example 121, 3-({6-fluoroimidazo[1,2-a]pyridin-5-yl}sulfonyl)-1-[8-(5-fluoropyridin-2-yl)-3,8-diazabicyclo[3.2.1]octan-3-yl]propan-1-one], for which the IC50 on M3 (setting [1]) was under 100 nM; on M2 (setting [2]), 100 to 1000 nM; at human M1 receptor it was under 100 nM.
Regarding `N#Cc1cc(N2C3CCC2CN(C(=O)CCS(=O)(=O)c2cccc4ncsc24)C3)ccc1F` [Example 122, 5-{3-[3-(1,3-benzothiazole-7-sulfonyl)propanoyl]-3,8-diazabicyclo[3.2.1]octan-8-yl}-2-fluorobenzonitrile], the IC50 was under 100 nM against M3, over 10000 nM on M2 (setting [2]) and under 100 nM on human M1 receptor.
In the case of `Cc1cc(Cl)cnc1N1CCN(C(=O)CCNCc2cccc3nccn23)[C@H](C)C1` [Example 123, 1-[(2R)-4-(5-chloro-3-methylpyridin-2-yl)-2-methylpiperazin-1-yl]-3-[({imidazo[1,2-a]pyridin-5-yl}methyl)amino]propan-1-one], the IC50 at M3 (setting [1]) is 1000 to 10000 nM; on M2 (setting [2]) it was over 10000 nM; at human M1 receptor (setting [3]), 1000 to 10000 nM.
For the molecule `Cc1cc(C#N)cnc1N1CCN(C(=O)CCS(=O)(=O)c2cccc3ncsc23)[C@@H](C)C1` [Example 124, 6-[(3S)-4-[3-(1,3-benzothiazole-7-sulfonyl)propanoyl]-3-methylpiperazin-1-yl]-5-methylpyridine-3-carbonitrile], the figures for the IC50 at M3 (setting [1]), on M2 (setting [2]) and on human M1 receptor (setting [3]) were 100 to 1000 nM, 100 to 1000 nM and under 100 nM, respectively.
Take `N#Cc1ccc(N2CC3CCC2CN3C(=O)CCS(=O)(=O)c2cccc3ncsc23)nc1` (stereo not drawn) [Example 125, 6-{5-[3-(1,3-benzothiazole-7-sulfonyl)propanoyl]-2,5-diazabicyclo[2.2.2]octan-2-yl}pyridine-3-carbonitrile]: the IC50 at M3 (setting [1]) was 100 to 1000 nM; on M2 (setting [2]), 100 to 1000 nM; on human M1 receptor (setting [3]) it was under 100 nM.
Turning to `CC1CN(c2ccc(C#N)cn2)[C@H](C)CN1C(=O)CCS(=O)(=O)c1cccc2ncsc12` (stereo partly drawn) [Example 126, 6-[(2R)-4-[3-(1,3-benzothiazole-7-sulfonyl)propanoyl]-2,5-dimethylpiperazin-1-yl]pyridine-3-carbonitrile], the IC50 on M3 (setting [1]) was over 10000 nM; at M2 (setting [2]), over 10000 nM; at human M1 receptor (setting [3]) it was 100 to 1000 nM.
As to `Cc1cc(F)cnc1N1CC(C)N(C(=O)CCS(=O)(=O)c2cccc3ncsc23)C[C@H]1C` (stereo partly drawn) [Example 127, 3-(1,3-benzothiazole-7-sulfonyl)-1-[(5R)-4-(5-fluoro-3-methylpyridin-2-yl)-2,5-dimethylpiperazin-1-yl]propan-1-one], the figures for the IC50 at M3 (setting [1]), on M2 (setting [2]) and on human M1 receptor (setting [3]) were 1000 to 10000 nM, 100 to 1000 nM and under 100 nM, respectively.
As to `N#Cc1ccc(N2CCN(C(=O)CCCc3cccc4ncoc34)CC2)nc1` [Example 129, 6-{4-[4-(1,3-benzoxazol-7-yl)butanoyl)piperazin-1-yl}pyridine-3-carbonitrile], the results for the half-inhibitory concentration (IC50) on M3 (setting [1]), at M2 (setting [2]) and on human M1 receptor (setting [3]) were over 10000 nM, 1000 to 10000 nM and 100 to 1000 nM, respectively.
With `N#Cc1cc(N2C3CCC2CN(C(=O)CCS(=O)(=O)c2cccc4nccn24)C3)ccc1F` [Example 130, 2-fluoro-5-[3-(3-{imidazo[1,2-a]pyridine-5-sulfonyl}propanoyl)-3,8-diazabicyclo[3.2.1]octan-8-yl)benzonitrile], the IC50 is over 10000 nM on M3 (setting [1]), 1000 to 10000 nM on M2 (setting [2]) and under 100 nM at human M1 receptor.
`N#Cc1cc(N2C3CCC2CN(C(=O)CCNCc2c(F)ccc4nccn24)C3)ccc1F` [Example 131, 2-fluoro-5-(3-{3-[({6-fluoroimidazo[1,2-a]pyridin-5-yl}methyl)amino]propanoyl}-3,8-diazabicyclo[3.2.1]octan-8-yl)benzonitrile]: the IC50 was over 10000 nM at M3 (setting [1]), over 10000 nM at M2 (setting [2]) and 100 to 1000 nM on human M1 receptor.
On to `N#Cc1ccc(N2CC3CCC(C2)N3C(=O)CCS(=O)(=O)c2cccc3ncsc23)nc1` [Example 132, 6-{8-{3-(1,3-benzothiazole-7-sulfonyl)propanoyl]-3,8-diazabicyclo[3.2.1]octan-3-yl}pyridine-3-carbonitrile], for which the IC50 was 1000 to 10000 nM on M3 (setting [1]), 100 to 1000 nM against M2 and under 100 nM on human M1 receptor.
Turning to `N#Cc1ccc(N2C3COCC2CN(C(=O)CCS(=O)(=O)c2cccc4ncsc24)C3)nc1` [Example 133, 6-{7-[3-(1,3-benzothiazole-7-sulfonyl)propanoyl]-3-oxa-7,9-diazabicyclo[3.3.1]nonan-9-yl}pyridine-3-carbonitrile], the IC50 is over 10000 nM at M3 (setting [1]), 100 to 1000 nM against M2 and under 100 nM at human M1 receptor.
In the case of `Cc1cc(F)cnc1N1CC(C)N(C(=O)CCS(=O)(=O)c2cccc3ncsc23)C(C)C1` (stereo not drawn) [Example 135, 3-(1,3-benzothiazole-7-sulfonyl)-1-[4-(5-fluoro-3-methylpyridin-2-yl)-2,6-dimethylpiperazin-1-yl]propan-1-one], the IC50 is 1000 to 10000 nM at M3 (setting [1]), 100 to 1000 nM at M2 (setting [2]) and under 100 nM on human M1 receptor (setting [3]).
In the case of `O=C(CCS(=O)(=O)c1cccc2nccn12)N1CC2CCC(C1)N2c1ccc(C(F)(F)F)cn1` [Example 136, 3-{imidazo[1,2-a]pyridine-5-sulfonyl}-1-{8-[5-(trifluoromethyl)pyridin-2-yl]-3,8-diazabicyclo[3.2.1]octan-3-yl}propan-1-one], the values for the IC50 at M3 (setting [1]), on M2 (setting [2]) and on human M1 receptor were 1000 to 10000 nM, 1000 to 10000 nM and under 100 nM, respectively.
Turning to `Nc1cc(N2CCN(C(=O)CCS(=O)(=O)c3cccc4ncsc34)CC2)c(Cl)cn1` [Example 137, 1-[4-(2-amino-5-chloropyridin-4-yl)piperazin-1-yl]-3-(1,3-benzothiazole-7-sulfonyl)propan-1-one], the results for the IC50 on M3 (setting [1]), on M2 (setting [2]) and at human M1 receptor (setting [3]) were over 10000 nM, over 10000 nM and 1000 to 10000 nM, respectively.
Turning to `O=C(CCS(=O)(=O)c1cccc2ncsc12)N1CCN(c2ccc(CO)cc2)CC1` [Example 138, 3-(1,3-benzothiazole-7-sulfonyl)-1-{4-[4-(hydroxymethyl)phenyl]piperazin-1-yl}propan-1-one], the IC50 on M3 (setting [1]) is over 10000 nM; on M2 (setting [2]) it was over 10000 nM; on human M1 receptor (setting [3]) it was 100 to 1000 nM.
`O=C(CCNCc1c(F)ccc2nccn12)N1CC2CCC(C1)N2c1ccncc1F` [Example 139, 3-[({6-fluoroimidazo[1,2-a]pyridin-5-yl}methyl)amino]-1-[8-(3-fluoropyridin-4-yl)-3,8-diazabicyclo[3.2.1]octan-3-yl]propan-1-one]: the IC50 at M3 (setting [1]) was over 10000 nM; at M2 (setting [2]) it was over 10000 nM; at human M1 receptor it was 100 to 1000 nM.
With `O=C(CCS(=O)(=O)c1cccc2ncsc12)N1CC=C(c2ccc(C(F)(F)F)cn2)CC1` [Example 140, 3-(1,3-benzothiazole-7-sulfonyl)-1-[5-(trifluoromethyl)-1′,2′,3′,6′-tetrahydro-[2,4′-bipyridin]-1′-yl]propan-1-one], the IC50 is 1000 to 10000 nM on M3 (setting [1]), 1000 to 10000 nM at M2 (setting [2]) and under 100 nM on human M1 receptor (setting [3]).
As for `N#Cc1ccc(C2=CC3CCC(C2)N3C(=O)CCS(=O)(=O)c2cccc3ncsc23)nc1` (stereo not drawn) [Example 141, 6-{8-[3-(1,3-benzothiazole-7-sulfonyl)propanoyl]-8-azabicyclo[3.2.1]oct-2-en-3-yl}pyridine-3-carbonitrile], the IC50 was over 10000 nM on M3 (setting [1]), 1000 to 10000 nM at M2 (setting [2]) and 100 to 1000 nM at human M1 receptor.
